Like-named read-outs stand apart in the source and are kept apart here.
Experiments:
Assay type in all cases: cell-based
[1] = test system: MCF-7 (human mammary adenocarcinoma); assay: Cytotoxic activity, neutral red assay, MCF-7; details: mean ± SEM
Experimental: (§1) The isolated compounds were resuspended in dimethyl sulfoxide (DMSO) to a final concentration of 25 mg/mL (stock solution), subsequent dilutions between 250 and 31 μg/mL were used for cytotoxicity assays. The cytotoxic activity was determined by neutral red assay, initially against the adherent cell lines 4T1 (mouse mammary tumor) and MCF-7 (human mammary adenocarcinoma) followed by H17 y TSA (murine breast cancer), MES SA PGP (+) y MES SA PGP (–) (human uterus sarcome), B16 (murine melanoma), MCA 38 (murine colon), 3T3 (murine fibroblats) y K562-ATCC, U937 y HL-60/MX2 (myeloid acute leukemia cell line) as described by Díaz-Cárdenas et al., 2017 [15]. When cultures reached a confluence of 80%, cells were passaged and counted in a Neubauer chamber. Cell viability was estimated in triplicate using the trypan blue assay. The percentage of viability was calculated as absorbance of the vehicle/absorbance of the treatment per 100. Inhibitory concentration 50 (IC50) values were defined as the concentration of the extracts that generated 50% inhibition of tumor cell growth. IC50 values were calculated with three or four parameter nonlinear regression curves using GraphPad Prism software (GraphPad Software, Inc., San Diego, CA, USA). IC50 values are presented as the mean ± standard error of mean (SEM). The selectivity index was calculated using the formula: IC50 Fibroblasts/IC50 tumor cell. A potential against tumor cell lines was considered when the selectivity was greater than 1.
(§2) The solvent used in the reconstitution of the extract (DMSO) was evaluated as a negative control for each test in the same volume as the extracts. Doxorubicin at a maximum concentration of 5 μM was used as a positive control.

[2] = test system: 4T1 (mouse mammary tumor); assay: Cytotoxic activity, neutral red assay, 4T1; details: mean ± SEM
Experimental: as §1, §2

[3] = test system: 4T1 H17 (murine breast cancer, high ALDH expression); assay: Cytotoxic activity, neutral red assay, 4T1 H17; details: mean ± SEM
Experimental: as §1, with “Inhibitory concentration 50 (IC50) values were defined as the concentration of the extracts that generated 50% inhibition of tumor cell growth.” left out, “IC50 values are presented as the mean ± standard error of mean (SEM).” left out, “A potential against tumor cell lines was considered when the selectivity was greater than 1.” left out
(§3) The solvent used in the reconstitution of the extract (DMSO) was evaluated as a negative control for each test in the same volume as the extracts. […]

[4] = test system: TSA (murine breast cancer); assay: Cytotoxic activity, neutral red assay, TSA; details: mean ± SEM, read-out: Cytotoxic Activity of Fractions IC50
Experimental: as §1, with “Inhibitory concentration 50 (IC50) values were defined as the concentration of the extracts that generated 50% inhibition of tumor cell growth.” left out, “IC50 values are presented as the mean ± standard error of mean (SEM).” left out, “A potential against tumor cell lines was considered when the selectivity was greater than 1.” left out
as §3

[5] = test system: B16 (murine melanoma); assay: Cytotoxic activity, neutral red assay, B16; details: mean ± SEM, read-out: Cytotoxic Activity of Fractions IC50
Experimental: as §1, with “Inhibitory concentration 50 (IC50) values were defined as the concentration of the extracts that generated 50% inhibition of tumor cell growth.” left out, “IC50 values are presented as the mean ± standard error of mean (SEM).” left out, “A potential against tumor cell lines was considered when the selectivity was greater than 1.” left out
as §3

[6] = test system: MCA 38 (murine colon); assay: Cytotoxic activity, neutral red assay, MCA 38; details: mean ± SEM
Experimental: as §1, with “Inhibitory concentration 50 (IC50) values were defined as the concentration of the extracts that generated 50% inhibition of tumor cell growth.” left out, “IC50 values are presented as the mean ± standard error of mean (SEM).” left out, “A potential against tumor cell lines was considered when the selectivity was greater than 1.” left out
as §3

[7] = test system: MES–SA/DX5P-Pgp (+) (human uterus sarcome); assay: Cytotoxic activity, neutral red assay, MES-SA/DX5 Pgp (+)
Experimental: as §1, with “Inhibitory concentration 50 (IC50) values were defined as the concentration of the extracts that generated 50% inhibition of tumor cell growth.” left out, “IC50 values are presented as the mean ± standard error of mean (SEM).” left out, “A potential against tumor cell lines was considered when the selectivity was greater than 1.” left out
as §3

[8] = test system: 3LL (lung cancer); assay: Cytotoxic activity, neutral red assay, 3LL; details: mean ± SEM
[9] = test system: K562 (myeloid acute leukemia); assay: Cytotoxic activity, neutral red assay, K562
Experimental: as §1, with “Inhibitory concentration 50 (IC50) values were defined as the concentration of the extracts that generated 50% inhibition of tumor cell growth.” left out, “IC50 values are presented as the mean ± standard error of mean (SEM).” left out, “A potential against tumor cell lines was considered when the selectivity was greater than 1.” left out
as §3

[10] = test system: U937 (myeloid acute leukemia); assay: Cytotoxic activity, neutral red assay, U937
Experimental: as §1, with “Inhibitory concentration 50 (IC50) values were defined as the concentration of the extracts that generated 50% inhibition of tumor cell growth.” left out, “IC50 values are presented as the mean ± standard error of mean (SEM).” left out, “A potential against tumor cell lines was considered when the selectivity was greater than 1.” left out
as §3

[11] = test system: 3T3 (murine fibroblast); assay: Cytotoxic activity, neutral red assay, 3T3 normal fibroblasts; details: 3T3, murine fibroblast (normal cells); mean ± SEM; read-out: Cytotoxic Activity of Fractions IC50
Experimental: as §1, with “Inhibitory concentration 50 (IC50) values were defined as the concentration of the extracts that generated 50% inhibition of tumor cell growth.” left out, “IC50 values are presented as the mean ± standard error of mean (SEM).” left out, “A potential against tumor cell lines was considered when the selectivity was greater than 1.” left out
as §3

[12] = listed as compound 1, read-out: Cytotoxic Activity of Fractions IC50
[13] = read-out: Cytotoxic Activity of Fractions IC50

SMILES	IC50 [1]	IC50 ([1]; listed as compound 1)	IC50 [2]	IC50 ([2]; listed as compound 1)	IC50 [3, 12]	IC50 [3, 13]	IC50 [4]	IC50 [5]	IC50 [6, 12]	IC50 [6, 13]	Selectivity Index (SI) ([7]; IC50 fibroblasts (3T3)/IC50 MES-SA/DX5 Pgp (+))	IC50 ([7]; MES-SA/DX5 Pgp (+), human uterus sarcoma, mean ± SEM, read-out: Cytotoxic Activity of Fractions IC50)	IC50 [8, 12]	IC50 [8, 13]	cytotoxic activity (in words) [9]	cytotoxic activity (in words) [10]	IC50 [11]	IC50 ([1]; listed as compound 2)	IC50 ([2]; listed as compound 2)
O=C1N[C@@H](Cc2ccc(O)cc2)C(=O)N2CCC[C@@H]12 [Compound 1, cyclo (L-Pro-L-Tyr)]	87.7 ± 2.32 µM	< 88 µM	57.1 ± 2.11 µM	< 88 µM	< 40 µM	40.4 ± 1.94 µM	197 ± 4.18 µM	80.9 ± 3.67 µM	< 40 µM	29.9 ± 1.55 µM	1.39	225.3 ± 1.23 µM	< 51.7 µM	51.7 ± 0.55 µM	no activity was detected	no activity was detected	314 ± 3.41 µM		
O=C1N[C@@H](Cc2ccc(O)cc2)C(=O)N[C@H]1Cc1ccccc1 [Compound 2, cyclo (L-Tyr-L-Phe)]	890.5 ± 3.45 µM		875.9 ± 5.14 µM															> 250 µM	> 250 µM

Reference: paper PMC7321072, “Bioactive Potential of Extracts of Labrenzia aggregata Strain USBA 371, a Halophilic Bacterium Isolated from a Terrestrial Source” (Molecules, 2020)
